Structures can show the parent of a compound that is named as a salt.
Test system: rat somatic hyperalgesia model
Experiment: Efficacy in a rat somatic hyperalgesia model (acid saline, Randall-Selitto pain threshold)
Assay type: in vivo
Conditions: SD male rats, right hind paw (non-challenged side), oral
Experimental: SD male rats (Charles River Laboratories Japan, Inc., 5 weeks old upon usage) were used. Under isoflurane anaesthesia, rats were intramuscularly administered with 100 μL of acidic saline of pH 4.0 in the left gastrocnemius. After 5 days of administration, rats again received 100 μL of acid saline in the left gastrocnemius. In the normal group, rats were intramuscularly administered with 100 μL of saline twice in total with 5 days apart in the left gastrocnemius (see Muscle Nerve, vol. 24, pp. 37-46, 2001).
The pain threshold was measured on a Randall-Selitto pressure analgesy-meter (Ugo Basile). Briefly, rats were securely fixed and uniformly and continuously increasing pressure was applied to the hind paws. […] For each of the left and right hind paws, tests were carried out three times at each evaluation point and the values were averaged to obtain the pain threshold.
For the normal group, rats were arbitrarily selected from those showing the pain threshold on the day before the first administration of acid saline of 140 g or more for both left and right hind paws. After being divided into groups, administration of the test compound (the present compound (the compound described in Example 38 of PTL 1), comparative compound A (the compound described in Example 38(5) of PTL 1), comparative compound B (the compound described in Example 41(2) of PTL 1), comparative compound C (1-(2-chlorophenyl)-N-methyl-N-(1-methylpropyl)isoquinoline-3-carboxamide (PK11195), CAS registry No.: 85532-75-8), a control substance (duloxetine hydrochloride, pregabalin) or a vehicle (0.5 w/v % methylcellulose 400 cP solution)) was started on the same day. On day 1 and day 7 of administration of each drug solution, the pain threshold on left and right hind paws was measured in a blind manner 2 hours after the first administration. Duloxetine hydrochloride was orally administered once a day and other agents were orally administered twice a day.

## CCC(C)N(C)C(=O)c1cc2ccccc2c(-c2ccccc2Cl)n1 (centres unmarked) [comparative compound C, 1-(2-chlorophenyl)-N-methyl-N-(1-methylpropyl)isoquinoline-3-carboxamide]
Day 7, before and 2 hours after administration, 1 mg/kg, twice a day
  pain threshold (efficacy for the pain threshold decreased in the control group): did not show the efficacy

## CNCC[C@H](Oc1cccc2ccccc12)c1cccs1 [duloxetine hydrochloride]
Day 7, before and 2 hours after administration, 30 mg/kg, once a day
  pain threshold (suppression of the decrease caused by acid saline): suppressed this decrease of the pain threshold

## CC(C)C[C@H](CN)CC(=O)O [pregabalin]
Day 7, before and 2 hours after administration, 20 mg/kg, twice a day
  pain threshold (suppression of the decrease caused by acid saline): suppressed this decrease of the pain threshold

## COc1cc(Cl)ccc1[C@H]1c2[nH]c3cccc(F)c3c2C2(CC2)CN1C(C)=O [the present compound, (1S)-2-acetyl-1-(4-chloro-2-methoxyphenyl)-5-fluoro-1,2,3,9-tetrahydrospiro[β-carboline-4,1′-cyclopropane]]
Day 7 of administration, before and 2 hours after administration, 0.1, 1 or 10 mg/kg, twice a day
  pain threshold (suppression of the decrease caused by acid saline): significant suppression
Day 7 of administration, before and 2 hours after administration, 0.1, 1 or 10 mg/kg, twice a day, listed as The present compound
  pain threshold (suppression of the decrease caused by acid saline): suppressed this decrease of the pain threshold

Source: US10675275B2, “Prophylactic and/or therapeutic agent for fibromyalgia” (ONO PHARMACEUTICAL CO., LTD., priority 2015, dated 2020)
